Data set [1] is described as follows: Acute toxicity in Wistar rat assessed as decrease in motor activity. The following applies: in vivo.
In data set [2] the test system is PC-3. In words: Induction of intracellular reactive oxygen species production in human PC-3 cells incubated for 1 hr measured at CC50 concentration by amperometric method. It counts as functional, cell-based.
Data set [3] deals with CWR22R. In words: Cytotoxicity against human 22Rv1 cells expressing PMSA measured using MTT assay. Format: functional.
A short description of data set [4]: Acute toxicity in Wistar rat assessed as decrease in porphyrin release from nose mucous membrane at 30 mg/kg, iv. It counts as organism-based. The following applies: in vivo.
The subject of data set [5] is PC-3. In words: Cytotoxicity against human PC-3 cells not expressing PMSA measured using MTT assay. Format: functional. For orientation: Formazan colour is commonly taken as a measure of viable cells.
Data set [6] is described as follows: Acute toxicity in iv dosed ICR male mouse assessed as maximum non-lethal dose. It counts as organism-based. Conditions: in vivo.
The nature of data set [7]: Acute toxicity in iv dosed Wistar male rat assessed as maximum non-lethal dose. It counts as organism-based. The following applies: in vivo.
Data set [8] can be described thus: Acute toxicity in Wistar rat assessed as damage in liver at 30 mg/kg, iv. It counts as organism-based. Conditions: in vivo.
Data set [9] concerns CWR22R. In words: Induction of intracellular reactive oxygen species production in human 22Rv1 cells incubated for 1 hr measured at CC50 concentration by amperometric method. Format: functional, cell-based.
Data set [10] in a line: Acute toxicity in Wistar rat assessed as decrease in porphyrin release from eye mucous membrane at 30 mg/kg, iv. Format: organism-based. The following applies: in vivo.

Activity calls are given as the source filed them. The calls are words filed in the database; no cut-off is given here. Where a SMILES comes first, the peptide text is derived from it. [ ]: non-standard residue; d: D form. The star is where a group is joined. Dolaproine = CO[C@@H]([C@@H]1CCCN1)[C@@H](C)C(=O)O; Dil = CC[C@H](C)[C@H](NC)[C@@H](CC(=O)O)OC; X2 = C[C@@H](N*)[C@@H](O)c1ccccc1; NMeV = CN[C@H](C(=O)O)C(C)C

With `CC[C@H](C)[C@@H]([C@@H](CC(=O)N1CCC[C@H]1[C@H](OC)[C@@H](C)C(=O)N[C@H](C)[C@@H](O)c1ccccc1)OC)N(C)C(=O)[C@@H](NC(=O)[C@@H](NC)C(C)C)C(C)C` (H-[NMeV]V[Dil][Dolaproine]-X2), the Activity result in [1] was “Toxic”; in [4], “Toxic”; in data set [6], 0.1 mg/kg; in data set [7], 0.29 mg/kg; in data set [8], “Toxic”; in [10], “Toxic”. Further, the result in the data set on PC-3 [2] and in the data set on CWR22R [9] was Active. In addition, the CC50 (usually the concentration at which the toxic effect on the cells reaches its halfway point) in the data set on CWR22R [3] was 1.44 nM; in the data set with PC-3 [5], 0.97 nM.

For `CC(=O)O[C@@]12CO[C@@H]1C[C@H](O)[C@@]1(C)C(=O)[C@H](O)C3=C(C)[C@@H](OC(=O)[C@H](O)[C@@H](NC(=O)OC(C)(C)C)c4ccccc4)C[C@@](O)([C@@H](OC(=O)c4ccccc4)[C@H]21)C3(C)C` [DOCETAXEL ANHYDROUS], the CC50 was 3.3 nM in the data set with CWR22R [3] and 6.7 nM in the data set with PC-3 [5].
